Structures can show the parent of a compound that is named as a salt.
What follows are compounds tested on rat aorta (assay: Inhibition of calcium-induced contraction of isolated rat aorta strips (reduction of response to added calcium chloride in K+-containing saline)). Details: 0.75 h; spirally cut rat aorta strips, 45 millimolar potassium, calcium 2 millimolar, test repeated with compound after 45 minutes; read-out: molar concentration of the compounds required to reduce the response by 50% (IC50).
Assay type: cell-based
Experimental: The ability of the compounds to inhibit the movement of calcium into the cell is shown by their effectiveness in reducing the response of isolated heart tissue to an increase in calcium ion concentration in vitro. The test is performed by mounting spirally cut strips of rat aorta with one end fixed and the other attached to a force transducer. The tissue is immersed in a bath of physiological saline solution containing potassium ion s at a concentration of 45 millimolar and no calcium. Calcium chloride is added to the bath with a pipette to give a final calcium ion concentration of 2 millimolar. The change in tension caused by the resulting contraction of the tissue is noted. The bath is drained and replaced with fresh saline solution and, after 45 minutes, the test is repeated with the particular compound under test present in the saline solution. The concentration of compound required to reduce the response by 50% is recorded.

Row | SMILES | IC50
1 | CCOC(=O)C1=C(COCCN2CCN(C(=O)[C@@H]3CCC(=O)N3)CC2)NC(C)=C(C(=O)OC)C1c1ccccc1Cl (stereo partly drawn) [Example 54, 4-(2-chlorophenyl)-3-ethoxycarbonyl-5-methoxycarbonyl-6-methyl-2-[2-(4-[l-5-oxo-pyrrolidin-2-ylcarbonyl]-piperazin-1-yl)ethoxymethyl]-1,4-dihydropyridine, hydrochloride hydrate] | 3.02 nM
2 | CCOC(=O)C1=C(COCCN2CCNCC2)NC(C)=C(C(=O)OC)C1c1ccccc1Cl (centres unmarked) [Example 55, 4-(2-chlorophenyl)-3-ethoxycarbonyl-5-methoxycarbonyl-6-methyl-2-[2-(piperazin-1-yl)ethoxymethyl]-1,4-dihydropyridine] | 155 nM
3 | CCOC(=O)C1=C(COCC(C)(C)N2CCNCC2)NC(C)=C(C(=O)OC)C1c1ccccc1Cl (centres unmarked) [Example 56] | 340 nM
4 | CCOC(=O)C1=C(COCC(C)N2CCNCC2)NC(C)=C(C(=O)OC)C1c1ccccc1Cl (centres unmarked) [Example 57] | 224 nM
5 | CCOC(=O)C1=C(COCCN2CCN(C(=N)NC(=O)NC(C)C)CC2)NC(C)=C(C(=O)OC)C1c1ccccc1Cl (centres unmarked) [Example 64] | 14 nM

Continued, values first:

Row | IC50 | SMILES
6 | 8.1 nM | CCOC(=O)C1=C(COCCN2CCN(C(=N)NC(=O)OC)CC2)NC(C)=C(C(=O)OC)C1c1ccccc1Cl (centres unmarked) [Example 65]
7 | 42 nM | CCOC(=O)C1=C(COCCN2CCN(C(=NC(C)=O)NC(C)=O)CC2)NC(C)=C(C(=O)OC)C1c1ccccc1Cl (centres unmarked) [Example 66]
8 | 89 nM | CCOC(=O)C1=C(COCCN2CCN(C(=O)NC)CC2)NC(C)=C(C(=O)OC)C1c1cccc2ccccc12 (centres unmarked) [Example 70B, 3-Ethoxycarbonyl-5-methoxycarbonyl-6-methyl-2-{2-[4-(N-methylcarbamoyl)piperazin-1-yl]ethoxymethyl}4-(1-naphthyl)-1,4-dihydropyridine hydrate]

From patent US4539322A, “Dihydropyridine derivatives and their use in treating heart conditions and hypertension” (Pfizer Inc., priority 1982, dated 1985)
